Data from patent US20230114107A1, “COMBINATION ANTI-CANCER THERAPIES WITH INDUCERS OF IRON-DEPENDENT CELLULAR DISASSEMBLY” (Flagship Pioneering Innovations V, Inc., priority 2019, published 2023).
Entries after “also recorded” stand apart in the source; their conditions may differ.

How the values were obtained:
[1] = tested on: A20 B-cell leukemia cells; assay: Viability of A20 B-cell leukemia / lymphoma cells after treatment; type: cell-based; conditions: 24 hours
[2] = tested on: A375-DR cells; assay: CellTiter-Glo 2.0 viability of dabrafenib-resistant melanoma cells; type: cell-based, human; conditions: graded concentrations, 72 hours; vs non-resistant parental cell line; FIG. 16A
Procedure: (§1) The effects of the ferroptosis inducer RSL3 on cancer cell lines with acquired resistance to standard of care therapeutics was assessed in vitro. Human melanoma cell lines with acquired resistance to BRAF inhibitors (A375-DR or A375-VR) were generated by propagating parental A375 cells in increasing concentrations of dabrafenib or vemurafenib (10 nM-100 μM) over 8 weeks. These resistant melanoma cell lines were further maintained in growth medium containing 5 μM dabrafenib or vemurafenib. BT-474 Clone 5, a human breast cancer cell line that is resistant to trastuzumab, was purchased from American Type Culture Collection (ATCC). 5,000 A375-DR, A375-VR, or BT-474 clone 5 cells were plated per well in flat-bottom 96 well plates and incubated overnight. Cells were then dosed with graded concentrations of RSL3 for 72 hours, and cellular viability was assessed using the CellTiter-Glo 2.0 Cell Viability Assay. The experiments were run in triplicate.

[3] = tested on: BT-474 Clone 5 cells; assay: CellTiter-Glo 2.0 viability of trastuzumab-resistant breast cancer cells; type: cell-based, human; conditions: graded concentrations, 72 hours; vs non-resistant parental cell line; FIG. 16C
Procedure: as §1

[4] = tested on: Jurkat T cell leukemia cells; assay: Viability of Jurkat T cell leukemia cells after treatment; type: cell-based; conditions: various doses, 24 hours; FIG. 5A
[5] = tested on: A375-VR cells; assay: CellTiter-Glo 2.0 viability of vemurafenib-resistant melanoma cells; type: cell-based, human; conditions: graded concentrations, 72 hours; vs non-resistant parental cell line; FIG. 16B
Procedure: as §1

SMILES: COC(=O)c1ccc([C@H]2c3[nH]c4ccccc4c3C[C@H](C(=O)OC)N2C(=O)CCl)cc1 [RSL3]
- viability of A20 lymphoma cells, dose dependence ([1]; GPX4 inhibitor 0.002-10 μM, FIG. 10A, 11A, 12A): decreased viability of the cells in a dose dependent manner
- viability of A20 B cell leukemia cells ([1]; various doses, FIG. 6A): negatively affected the viability
- sensitivity of A375-DR cells to RSL3-induced ferroptosis (cellular viability) [2]: sensitive to RSL3-induced ferroptosis; also recorded: more sensitive to RSL3-induced ferroptosis than the corresponding non-resistant parental cell line
- sensitivity of BT-474 clone 5 cells to RSL3-induced ferroptosis (cellular viability) [3]: sensitive to RSL3-induced ferroptosis; also recorded: more sensitive to RSL3-induced ferroptosis than the corresponding non-resistant parental cell line
- viability of Jurkat T cell leukemia cells [4]: negatively affected the viability
- sensitivity of A375-VR cells to RSL3-induced ferroptosis (cellular viability) [5]: sensitive to RSL3-induced ferroptosis; also recorded: more sensitive to RSL3-induced ferroptosis than the corresponding non-resistant parental cell line
